According to patent US20260125379A1, “PRODRUG OF JAK KINASE INHIBITOR” (E-nitiate Biopharmaceuticals (Hangzhou) Co., Ltd, priority 2022, published 2026):
Read-outs that look alike come from different tables or passages of the source.

Legend:
[1] = target: JAK1 (Homo sapiens, UniProt P23458); assay: JAK1 kinase inhibition assay (ULight-JAK-1 substrate, Eu-labeled anti-phosphotyrosine antibody); assay type: biochemical; conditions: JAK1 10 nM, substrate 50 nM, ATP 40 μM, 2 hours at room temperature
Method: (§1) Example A: Activity Detection of JAK Kinase Small Molecule Inhibitors
(§2) Kinase reaction buffer was prepared with the following components: 50 mM HEPES, pH 7.5, 1 mM EGTA, 10 mM MgCl2, 2 mM DTT, 0.01% Tween20.
(§3) Detection buffer was prepared by diluting 10× detection buffer to IX with deionized water in a ratio of 9:1.
(§4) JAK kinase was diluted with kinase reaction buffer to 4× final concentration (JAK1: 40 nM, JAK2: 0.5 nM).
(§5) ULight™-JAK-1 (Tyr1023) substrate was diluted with kinase reaction buffer to 200 nM (final concentration: 50 nM).
(§6) ATP was diluted with kinase reaction buffer to 4× final concentration (JAK1: 160 μM, JAK2: 40 μM).
(§7) Compound to be tested was dissolved with DMSO to obtain a 10 mM storage solution, which was diluted to desired concentrations by a 3-fold gradient; for each compound 10 concentration points were set, and the final concentration of the compound to be tested ranges from 10 μM to 0.5 nM.
(§8) EDTA was dissolved with 1× detection buffer to 40 mM (EDTA final concentration: 10 mM).
(§9) Eu-labeled detection antibody (anti-phosphotyrosine (PT66)) was diluted with 1× detection buffer to 8 nM (final antibody concentration: 2 nM).
(§10) (1) To a 384-well plate, 2.5 μL 4× kinase solution and 2.5 μL 4× test compound solution with different concentrations that have been diluted were added successively, each concentration was set in duplicate, and an enzyme solution blank control and a negative control (DMSO group) were also set.
(§11) (2) The 384-well plate was shaken to mix enzyme and compound well, and then centrifuged at 1000 rpm for 1 minute, and incubated at room temperature for 60 minutes.
(§12) (3) 2.5 μL 4× substrate solution was added to the 384-well plate and centrifuged at 1000 rpm for 1 minute.
(§13) (4) 2.5 μL 4× ATP solution was added to the 384-well plate and centrifuged at 1000 rpm for 1 minute, and then enzyme reaction was initiated.
(§14) (5) For JAK1 the reaction was carried out at room temperature for 2 hours, and for JAK2 the reaction was carried out at room temperature for 1 hour.
(6) For the JAK1 reaction, the final concentrations of components are as follows: JAK1: 10 nM, substrate: 50 nM, ATP: 40 μM; and the final concentration of the tested compounds ranges from 10μ M to 0.5 nM.
(§15) (7) After the enzyme reaction was completed, 5 μL 4× enzyme reaction termination solution was added to each well of the 384-well plate, and then centrifuged at 1000 rpm for 1 minute and incubated at room temperature for 5 minutes.
(§16) (8) 5 μL 4× detection antibody solution (the final concentration of detection antibody is 2 nM) was added to each well of the 384-well plate, and then centrifuged at 1000 rpm for 1 minute and incubated at room temperature for 1 hour.
(§17) (9) At the antibody incubation was completed, signal value of each well was measured on a Envision plate reader.
(§18) (1) The percentage inhibition rate corresponding to each concentration of the tested compound was calculated on the basis that the blank control of enzyme solution corresponds to 100% and the negative control (DMSO group) corresponds to 0%.
(§19) (2) A nonlinear regression analysis of the logarithm of the concentration of the detected compound and the corresponding percentage inhibition rate was performed in GraphPad Prism software to obtain the half-inhibiting concentration (IC50) of the tested compound.

[2] = target: JAK2 (Homo sapiens, UniProt O60674); assay: JAK2 kinase inhibition assay (ULight-JAK-1 substrate, Eu-labeled anti-phosphotyrosine antibody); assay type: biochemical; conditions: JAK2 0.125 nM, substrate 50 nM, ATP 10 μM, 1 hour at room temperature
Method: as §1, §2, §3, §4, §5, §6, §7, §8, §9, §10, §11, §12, §13, §14
For the JAK2 reaction, the final concentrations of component are as follows: JAK2: 0.125 nM, substrate: 50 nM, ATP: 10 μM; and the final concentration of the tested compound ranges from 10 μM to 0.5 nM.
as §15, §16, §17, §18, §19

[3] = Fecal excretion (cumulative recovery) in rats after single gavage; assay type: in vivo; conditions: feces, SD rats
Method: (§20) Compounds A1, A2, A3, B3, B6 and B3 were administered once to SD rats by gavage. The concentrations of medicaments and metabolites thereof in plasma were collected and measured at different time points, and the pharmacokinetic parameters of each compound were calculated to study the pharmacokinetic characteristics of the compounds in plasma of SD rats. Fecal samples at 8 and 24 hours were collected simultaneously, and the concentrations of prodrugs and degraded products were detected to investigate the excretion recovery rate.
(§21) Rats were grouped in groups of 3, and all SD rats were fasted overnight (12 hours or more) the day before the experiment. On the day of the experiment, after weighing the body weight, the rats were administrated once with compound A1, A2, A3, B3, B6, and B3 by gavage respectively. SD rats were able to resume eating 4 hours after administration and were able to drink freely during the experiment. 0.20 mL of blood was collected from the jugular vein before administration and at 0.5, 1, 2, 4, 8, 12, and 24 hours after administration, respectively, and was placed in EDTA-K2 anticoagulation tube. All whole blood samples were centrifuged at 1500 g to 1600 g for 10 minutes within half an hour after collection to separate plasma, which was stored in a refrigerator at a temperature of between −90° C. and −60° C. for sample analysis. All the feces from the metabolic cage chassis were collected at 24 h after administration and weighed accurately. The required volume of homogenate liquid (aqueous solution containing 20% methanol) was added at a weight/volume ratio of 1:10, and the resultant was homogenized and analyzed.

[4] = Plasma pharmacokinetics in rats after single gavage; assay type: in vivo; conditions: SD rats; for presence of the prodrug in plasma (in words): after gavage of the prodrug itself; for Cmax (ng · mL^−1) / AUC0-t / Cmax / Tmax: plasma
Method: as §20, §21

[5] = Pharmacokinetics in rats in vivo: A13 in plasma and colon tissue after equimolar A3 or A13; conditions: SD rats, A3 30 mg/kg vs A13 15 mg/kg (equal molar) by gavage, FIG. 1
Method: Compounds A3 and A13 were administered once to SD rats by gavage in an equal molar amount relative to the body weight of rats. The concentration of the medicaments and metabolites thereof in plasma and colon tissues were collected and measured at different time points, and the pharmacokinetic parameters of the compounds were calculated to compare the pharmacokinetic characteristics of the prodrug and the active metabolite in SD rats in vivo.
Rats were grouped in groups of 27, and all SD rats were fasted overnight (12 hours or more) the day before the experiment. On the day of the experiment, after weighing the body weight, the compounds A3 (30 mg/kg) and A13 (15 mg/kg) were administered once by gavage respectively. SD rats were able to resume eating after 4 hours of administration and were able to drink freely during the experiment. Plasma and colonic tissue were collected at 0.5, 1, 2, 4, 6, 8, 12, 24 and 48 hours after the administration to detect the concentration of A13 in the plasma and colon tissue homogenate liquid.

[6] = administration group Compound A2 50 mg/kg by gavage
[7] = administration group Compound B3 33 mg/kg (equimolar with B6) by gavage
[8] = administration group Compound B6 50 mg/kg by gavage
[9] = rat, po, administration group Compound B6 50 mg/kg by gavage, read-out: Cmax
[10] = rat, po, administration group Compound B6 50 mg/kg by gavage, read-out: Tmax
[11] = administration group Compound A3 40 mg/kg by gavage
[12] = administration group Compound A1 50 mg/kg by gavage

JAK2, sequence (O60674 whole entry, species assumed): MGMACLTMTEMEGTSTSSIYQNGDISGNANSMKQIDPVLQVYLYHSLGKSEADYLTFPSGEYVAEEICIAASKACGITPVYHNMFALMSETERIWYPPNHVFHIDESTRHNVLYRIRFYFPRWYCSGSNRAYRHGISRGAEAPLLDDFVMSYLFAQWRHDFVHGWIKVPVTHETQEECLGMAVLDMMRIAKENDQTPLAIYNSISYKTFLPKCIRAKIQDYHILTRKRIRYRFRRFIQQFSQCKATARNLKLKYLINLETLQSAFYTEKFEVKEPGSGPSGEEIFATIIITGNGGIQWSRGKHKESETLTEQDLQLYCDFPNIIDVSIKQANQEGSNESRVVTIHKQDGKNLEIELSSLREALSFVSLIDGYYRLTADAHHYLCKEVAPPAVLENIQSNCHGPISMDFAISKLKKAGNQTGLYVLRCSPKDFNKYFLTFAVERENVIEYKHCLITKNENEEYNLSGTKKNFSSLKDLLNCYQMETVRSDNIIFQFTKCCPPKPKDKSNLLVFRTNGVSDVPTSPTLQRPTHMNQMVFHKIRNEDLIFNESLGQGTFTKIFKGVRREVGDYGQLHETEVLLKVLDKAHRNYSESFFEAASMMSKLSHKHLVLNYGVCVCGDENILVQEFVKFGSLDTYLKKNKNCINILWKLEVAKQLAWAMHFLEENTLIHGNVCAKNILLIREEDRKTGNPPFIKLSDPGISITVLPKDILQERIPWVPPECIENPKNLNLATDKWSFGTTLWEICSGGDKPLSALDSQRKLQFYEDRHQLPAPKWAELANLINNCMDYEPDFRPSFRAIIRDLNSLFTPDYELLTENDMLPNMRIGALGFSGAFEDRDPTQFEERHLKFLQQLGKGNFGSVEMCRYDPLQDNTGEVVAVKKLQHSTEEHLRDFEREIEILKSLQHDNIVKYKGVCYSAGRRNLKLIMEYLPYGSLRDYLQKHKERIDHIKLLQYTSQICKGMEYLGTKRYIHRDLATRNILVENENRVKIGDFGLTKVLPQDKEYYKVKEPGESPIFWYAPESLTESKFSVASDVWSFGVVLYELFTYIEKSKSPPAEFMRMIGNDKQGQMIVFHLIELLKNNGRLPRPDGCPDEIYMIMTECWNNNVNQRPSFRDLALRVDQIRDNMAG
JAK1, sequence (P23458 whole entry, species assumed): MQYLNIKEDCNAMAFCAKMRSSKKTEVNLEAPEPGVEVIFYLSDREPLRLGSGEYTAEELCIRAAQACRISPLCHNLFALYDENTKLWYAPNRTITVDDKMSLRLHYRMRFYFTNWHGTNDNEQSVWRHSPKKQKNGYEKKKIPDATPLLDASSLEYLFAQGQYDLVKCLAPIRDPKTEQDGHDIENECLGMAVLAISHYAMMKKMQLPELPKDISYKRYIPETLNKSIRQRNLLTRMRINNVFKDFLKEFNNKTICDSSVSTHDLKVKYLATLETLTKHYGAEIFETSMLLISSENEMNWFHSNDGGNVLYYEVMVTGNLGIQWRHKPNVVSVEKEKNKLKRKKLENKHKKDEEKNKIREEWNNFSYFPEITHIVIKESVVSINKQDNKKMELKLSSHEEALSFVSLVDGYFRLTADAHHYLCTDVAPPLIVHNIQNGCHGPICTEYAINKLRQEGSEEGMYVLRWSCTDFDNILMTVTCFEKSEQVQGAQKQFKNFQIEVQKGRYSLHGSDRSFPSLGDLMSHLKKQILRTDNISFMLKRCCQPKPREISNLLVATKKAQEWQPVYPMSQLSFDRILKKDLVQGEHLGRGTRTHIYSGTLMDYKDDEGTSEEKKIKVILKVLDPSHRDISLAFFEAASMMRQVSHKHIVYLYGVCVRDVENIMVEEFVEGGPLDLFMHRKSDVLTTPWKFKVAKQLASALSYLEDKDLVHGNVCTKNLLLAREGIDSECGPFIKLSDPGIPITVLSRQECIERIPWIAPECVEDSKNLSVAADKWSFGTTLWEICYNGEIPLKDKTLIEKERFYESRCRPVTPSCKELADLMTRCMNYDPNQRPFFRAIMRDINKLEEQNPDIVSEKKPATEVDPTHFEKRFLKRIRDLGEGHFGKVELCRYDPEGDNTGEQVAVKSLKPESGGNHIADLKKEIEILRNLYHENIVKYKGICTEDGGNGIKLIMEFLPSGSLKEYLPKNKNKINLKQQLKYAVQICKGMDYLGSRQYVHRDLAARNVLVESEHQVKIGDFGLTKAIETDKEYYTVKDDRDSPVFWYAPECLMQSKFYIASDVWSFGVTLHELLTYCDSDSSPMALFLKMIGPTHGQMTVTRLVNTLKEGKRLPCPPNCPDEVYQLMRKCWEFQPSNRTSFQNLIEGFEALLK

SMILES | IC50 [1] [nM] | IC50 [2] [nM] | Cumulative recovery rate at 24 h (%) [3, 6] [%] | presence of the prodrug in plasma (in words) [4] | Cumulative recovery rate at 24 h (%) [3, 8] [%] | Cmax [4, 9] [ng/mL] | Tmax [4, 10] [h] | Cumulative recovery rate at 24 h (%) [3, 11] [%] | AUC0-t [4, 11] [ng·h/g] | Cumulative recovery rate at 24 h (%) [3, 12] [%] | also measured
C[C@@H](OC(=O)OCc1ccc(/N=N/c2ccc(O)c(C(=O)O)c2)cc1)c1nc2cnc3[nH]ccc3c2n1N1CCC(CC#N)CC1 [Compound A2, (R,E)-5-((4-((((1-(1-(4-cyanomethylpiperidin-1-yl)-1,6-dihydroimidazo[4,5-d]pyrrolo[2,3-b]pyridin-2-yl)ethoxy)carbonyl)oxy)methyl)phenyl)diazenyl)-2-hydroxybenzoic acid] | 5.94 | 27 | 7.2 | absent or rarely present in plasma |  |  |  |  |  |  | Cmax (ng · mL^−1) [4, 6]: BLOQ
N#CC[C@H]1CC[C@H](n2c(N)nc3cnc4[nH]ccc4c32)CC1 [Compound B3, 2-((1R,4R)-4-(2-aminoimidazo[4,5-d]pyrrolo[2,3-b]pyridin-1(6H)-ethyl)cyclohexyl)acetonitrile] | 0.04 | 0.37 |  |  | 82.1 | 4.8 | 12 |  |  |  | Cumulative recovery rate at 24 h (%) [3, 7]: 71.2%; AUC0-t [4, 7]: 324 ng·h/g; AUC0-t [4, 8]: 69.1 ng·h/g; Cmax ([4]; rat, po, administration group Compound B3 33 mg/kg (equimolar with B6) by gavage, read-out: Cmax): 126 ng/mL; Tmax ([4]; rat, po, administration group Compound B3 33 mg/kg (equimolar with B6) by gavage, read-out: Tmax): 1.2 h
C[C@@H](OC(=O)C(C)(C)Oc1ccccc1/N=N/c1ccc(O)c(C(=O)O)c1)c1nc2cnc3[nH]ccc3c2n1N1CCC(CC#N)CC1 [Compound A3, (R,E)-5-((2-((1-(1-(1-(4-cyanomethylpiperidin-1-yl)-1,6-dihydroimidazo[4,5-d]pyrrolo[2,3-b]pyridin-2-yl)ethoxy)-2-methyl-1-oxopropan-2-yl)oxy)phenyl)diazenyl)-2-hydroxybenzoic acid] | 7.04 | 102 |  | absent or rarely present in plasma |  |  |  | 0.78 | 8.92 |  | Cmax ([4]; rat, po, administration group Compound A3 40 mg/kg by gavage, read-out: Cmax): 2.08 ng/mL; Tmax ([4]; rat, po, administration group Compound A3 40 mg/kg by gavage, read-out: Tmax): 4 h; amount (AUC) of active metabolite A13 in the colonic tissue after prodrug A3 compared with compound A13 ([5]; colon tissue 0.5-48 hours): more in the colonic tissue; amount (AUC) of active metabolite A13 in the blood after prodrug A3 compared with compound A13 ([5]; plasma 0.5-48 hours): less in the blood
C[C@@H](O)c1nc2cnc3[nH]ccc3c2n1N1CCC(CC#N)CC1 [Compound A13, (R)-2-(1-(2-(1-(hydroxyethyl))imidazo[4,5-d]pyrrolo[2,3-b]pyridin-1(6H)-yl)piperidin-4-yl)acetonitrile] |  |  | 24.8 |  |  |  |  | 34.3 | 836 | 11.6 | Cmax [4, 12]: 9.1 ng/mL; Tmax [4, 12]: 12 h; AUC0-t [4, 6]: 972 ng·h/g; Cmax [4, 6]: 80.6 ng/mL; Tmax [4, 6]: 4 h; Cmax [4, 11]: 69.9 ng/mL; Tmax [4, 11]: 12 h
C[C@@H](OC(=O)CCc1ccccc1/N=N/c1ccc(O)c(C(=O)O)c1)c1nc2cnc3[nH]ccc3c2n1N1CCC(CC#N)CC1 [Compound A1, (R,E)-5-((2-(3-(1-(1-(4-(cyanomethyl)piperidin-1-yl)-1,6-dihydroimidazo[4,5-d]pyrrolo[2,3-b]pyridin-2-yl)ethoxy)-3-oxopropyl)phenyl)diazenyl)-2-hydroxybenzoic acid] | 133 | 536 |  | absent or rarely present in plasma |  |  |  |  |  | 83 | Cmax (ng · mL^−1) [4, 12]: BLOQ
N#CC[C@H]1CC[C@H](n2c(/N=N/c3ccc(O)c(C(=O)O)c3)nc3cnc4[nH]ccc4c32)CC1 [Compound B6, 5-((E)-(1-((1R,4R)-4-(cyanomethyl)cyclohexyl)-1,6-dihydroimidazo[4,5-d]pyrrolo[2,3-b]pyridin-2-yl)diazenyl)-2-hydroxybenzoic acid] | 0.45 | 0.81 |  | absent or rarely present in plasma | 5.1 | 0.7 | 4 |  |  |  | blood system absorption (AUC0-t) of the active metabolite B3 after prodrug B6 compared with direct oral equimolar B3 ([4]; B6 50 mg/kg vs B3 33 mg/kg by gavage): significant reduction
